# Measured values: PubChem BioAssay (NCI)
# “And” between values parts separate entries of the source, which are not always exact repeats. Identical values can stand only once.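 Values below derive from 48-hour exposures of cells grown in 96-well plates, with endpoints linearly interpolated between the two concentrations bracketing the appropriate inhibition level. GI50 = concentration required for 50% inhibition of growth. TGI: concentration producing complete growth inhibition.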
# Tests used:
# Test in all cases: DTP human tumour cell line panel, 48 h
# HT29 colon = test system: HT29 colon
# HOP-62 NSCLC = test system: HOP-62 NSCLC
# OVCAR-4 ovarian = test system: OVCAR-4 ovarian
# MOLT-4 leukemia = test system: MOLT-4 leukemia
# UO-31 renal = test system: UO-31 renal
# MALME-3M melanoma = test system: MALME-3M melanoma
# IGROV1 ovarian = test system: IGROV1 ovarian
# A549 NSCLC = test system: A549 NSCLC
# U251 CNS = test system: U251 CNS
# RPMI-8226 leukemia = test system: RPMI-8226 leukemia
SMILES,GI50 (HT29 colon),TGI (HT29 colon),GI50 (HOP-62 NSCLC),TGI (HOP-62 NSCLC),GI50 (OVCAR-4 ovarian) [µM],TGI (OVCAR-4 ovarian),GI50 (MOLT-4 leukemia) [µM],TGI (MOLT-4 leukemia),GI50 (UO-31 renal) [µM],TGI (UO-31 renal),GI50 (MALME-3M melanoma) [µM],TGI (MALME-3M melanoma),GI50 (IGROV1 ovarian) [µM],TGI (IGROV1 ovarian),GI50 (A549 NSCLC),TGI (A549 NSCLC),GI50 (U251 CNS) [µM],TGI (U251 CNS),GI50 (RPMI-8226 leukemia) [µM],TGI (RPMI-8226 leukemia)
Cn1ccnc1C(=O)/C=C/c1ccc(CC(=O)Nc2ccc(F)cc2)cc1,2.27 µM,8.21 µM,4.68 µM,19 µM,5.68,> 25 µM,2.32,18.1 µM,1.72,5.16 µM,5.28,14.9 µM,2.93,16.6 µM,6.43 µM,> 25 µM,1.4,4.81 µM,1.02,5.44 µM
COc1ccc(C(=O)CC(=O)C(=O)Nc2ccc(C)c(C)c2)cc1,,> 100 µM,,> 100 µM,,> 100 µM,,> 100 µM,,> 100 µM,,> 100 µM,,> 100 µM,,> 100 µM,,> 100 µM,,> 68 µM
O=C(CN1C(=O)S/C(=C\C(Cl)=C\c2ccccc2)C1=O)NCCc1ccc(O)cc1,3.02 µM,12.3 µM,3.34 µM,15.7 µM,2.61,11.9 µM,2.38,> 100 µM,1.64,3.31 µM,2.03,5.96 µM,1.76,3.9 µM,3.1 µM,> 100 µM,2,5.16 µM,1.74,6.96 µM
OCC1OC2OC3C(CO)OC(OC4C(CO)OC(OC5C(CO)OC(OC6C(CO)OC(OC7C(CO)OC(OC1C(O)C2O)C(O)C7O)C(O)C6O)C(O)C5O)C(O)C4O)C(O)C3O (stereo unspecified) (tested in a mixture with another compound),,> 100 µM,,> 100 µM,,> 100 µM,,> 100 µM,,> 100 µM,,> 100 µM,,> 100 µM,,> 100 µM,,> 100 µM,,> 100 µM
NCCCNCCSSC/C=C\CSSCCNCCCN,,31.4 µM and 27.5 µM,> 100 µM and 33.2 µM,> 100 µM and 93.4 µM,,> 100 µM,,62 µM and 57.3 µM,,> 100 µM,,> 100 µM,,> 100 µM,> 100 µM and 46.8 µM,> 100 µM,,> 100 µM,,> 100 µM
NC(=O)CCC(NC(=O)Cc1ccccc1)C(=O)O (stereo unspecified) (tested in a mixture with another compound),,> 8130 µM,,> 8130 µM,,> 8130 µM,,> 8130 µM,,2100 µM and > 8130 µM,,> 8130 µM,,> 8130 µM,,> 8130 µM,,> 8130 µM,,> 8130 µM
O=C1NC(c2c(Cl)cccc2Cl)Nc2ccccc21 (stereo unspecified),,> 100 µM,,> 100 µM,,> 100 µM,,> 100 µM,,> 100 µM,,88.7 µM,,> 100 µM,,> 100 µM,,> 100 µM,,> 100 µM
CCN(CC)CCCCNc1ncc2cc(-c3cc(OC)cc(OC)c3)c(NC(=O)NC(C)(C)C)nc2n1,3.31 µM,13.9 µM,12.1 µM,27.2 µM,1.84,25.5 µM,3.66,19.4 µM,1.37,15.5 µM,1.96,4.17 µM,3.64,16.3 µM,7.84 µM,23 µM,2.77,17.5 µM,4.92,27.9 µM
CCn1c(-c2nonc2N)nc2cncc(C(=O)NCCNC)c21,0.817 µM,> 25 µM,3.11 µM,> 25 µM,> 22.8,> 25 µM,> 25,> 25 µM,0.684,5.77 µM,5.7,> 25 µM,4.87,> 22.6 µM,4.47 µM,> 23.3 µM,> 25,> 25 µM,> 25,> 25 µM
COc1ccc(-c2nn(-c3cccc(NC(=O)c4cccc(C(F)(F)F)c4)c3)cc2-c2ccncc2)cc1Cl,2.92 µM,27.7 µM,3.07 µM,> 100 µM,6.24,> 100 µM,2.62,> 100 µM,2.85,> 100 µM,1.46,> 100 µM,7.06,> 100 µM,2.7 µM,> 100 µM,1.8,17.6 µM,2.5,49 µM
COC(=O)C(Cc1ccccc1)NC(=O)Cn1ccnc1[N+](=O)[O-] (stereo unspecified),,> 100 µM,,> 100 µM,,> 100 µM,,> 100 µM,,> 100 µM,,> 100 µM,,> 100 µM,,> 100 µM,,> 100 µM,,> 100 µM
COC(=O)CS(=O)c1ccccc1 (stereo unspecified),,> 100 µM,,83.3 µM,,> 100 µM,,41.4 µM,,22.1 µM,,> 100 µM,,54 µM,,> 100 µM,,98.6 µM,,52.2 µM
OCC1OC(n2cnc3c2NC=NC[C@H]3O)CC1O (stereo partly specified),469 µM and > 588 µM,474 µM and > 588 µM,> 588 µM,471 µM and > 588 µM,> 588,500 µM and > 588 µM,> 588,469 µM and > 588 µM,> 588,500 µM and > 588 µM,> 588,471 µM and > 588 µM,> 588,500 µM and > 588 µM,412 µM and > 588 µM,461 µM and > 588 µM,> 588,500 µM and > 588 µM,> 588,500 µM and > 588 µM
COc1ccc2c(c1)/C(=C\c1c(Cl)n(C)c3ccccc13)C(=O)N2,0.574 µM,> 100 µM,1.44 µM,24 µM,7.07,> 100 µM,1.7,> 22 µM,3.71,20.6 µM,4.59,16.7 µM,0.561,,0.818 µM,> 100 µM,0.817,10.5 µM,1.76,> 34.3 µM
CC1OC(n2c3ccccc3c3c4c(c5c6ccccc6[nH]c5c32)C(=O)N(CCN2CCOCC2)C4=O)CC(O)C1O (stereo unspecified),1.92 µM,9.91 µM,1.52 µM,8.26 µM,4.03,14.1 µM,1.2,9.93 µM,1.96,10.8 µM,4.54,12.8 µM,3.67,16 µM,2.51 µM,10.4 µM,1.24,7.19 µM,2.97,20.7 µM
CCOC(=O)C(=O)Nc1c(C)cccc1C(C)C,,> 100 µM,,> 100 µM,,> 100 µM,,> 100 µM,,> 100 µM,,> 100 µM,,> 100 µM,,> 100 µM,,> 100 µM,,> 100 µM
Cc1nn(-c2ccccc2)c2nc3c(nc12)C1=NCCN1C(c1ccc(Cl)cc1)N3 (stereo unspecified),2.5 µM,5.96 µM,3.26 µM,8.31 µM,7.1,20.9 µM,2.38,6.01 µM,7.84,21.5 µM,2.18,4.12 µM,11.7,27.4 µM,4.63 µM,17.7 µM,2.21,5.98 µM,2.22,5.28 µM
CCN(CC)CCCC(Cc1ccccc1)Nc1c2ccc(Cl)cc2nc2ccc(OC)cc12 (stereo unspecified),1.41 µM,3.57 µM,3.39 µM,12.5 µM,2.15,6.2 µM,1.91,5.7 µM,1.35,2.69 µM,2.02,3.6 µM,3.21,13.2 µM,2.79 µM,7.29 µM,1.56,3.11 µM,2.08,5.26 µM
COc1ccc(NC(=O)CC(=O)N2N=C(N(CCC#N)c3cccc(C)c3)CC2c2ccccc2)cc1 (stereo unspecified),,> 100 µM,,> 100 µM,,> 100 µM,,> 100 µM,,> 100 µM,,> 100 µM,,> 100 µM,,> 100 µM,,> 100 µM,,> 100 µM
CC(C(=O)O)/C(=C\c1ccc2c(c1)OCO2)C(=O)O (stereo unspecified),,> 82.2 µM,,> 100 µM,,> 100 µM,,> 21.9 µM,,> 100 µM,,> 100 µM,,> 100 µM,,> 100 µM,,> 100 µM,,> 100 µM
CC(C)n1c(=O)n(C)c2cnc3cc(F)c(-c4ccc(OCCCN5CCCCC5)nc4)cc3c21,8.5 µM,37.2 µM,4.99 µM,28.3 µM,9.08,56.5 µM,5.47,41.5 µM,3.74,16.2 µM,10.6,23.4 µM,8.18,41.9 µM,16.3 µM,63.9 µM,13.5,37.6 µM,3.22,14.6 µM
COc1ccc(OC)c(/C=C2\COc3ccc(O)c(O)c3C2=O)c1,2.68 µM,6.6 µM,8.63 µM,24.5 µM,2.58,14.5 µM,1.97,> 100 µM,1.22,2.6 µM,2.1,6.58 µM,2.31,6.68 µM,3.07 µM,11.9 µM,2.21,10.5 µM,0.751,6.12 µM
